# Results from patent US12679850B2, “TYK2 inhibitors and uses thereof” (Alumis Inc., priority 2020, dated 2026).
# Experiments:
# [1] = target: T1, human TYK2 (JH2domain-pseudokinase) (Homo sapiens, UniProt P29597); test: TYK2 JH2 domain binding assay (KINOMEscan); details: 11-point 3-fold dilution, top concentration 30,000 nM, duplicate
# T1 construct: host or cells: transiently transfected HEK293 cells; unpurified extract used
# Method: Binding constants for the compounds described herein against the JH2 domain were determined by the following protocol for a KINOMEscan® assay (DiscoveRx). A fusion protein of a partial length construct of human TYK2 (JH2domain-pseudokinase) (amino acids G556 to D888 based on reference sequence NP_003322.3) and the DNA binding domain of NFkB is expressed in transiently transfected HEK293 cells. From these HEK 293 cells, extracts are prepared in M-PER extraction buffer (Pierce) in the presence of Protease Inhibitor Cocktail Complete (Roche) and Phosphatase Inhibitor Cocktail Set II (Merck) per manufacturers' instructions. The TYK2 (JH2domain-pseudokinase) fusion protein is labeled with a chimeric double-stranded DNA tag containing the NFkB binding site fused to an amplicon for qPCR readout, which is added directly to the expression extract (the final concentration of DNA-tag in the binding reaction is 0.1 nM). […]
# The binding reaction is assembled by combining 16 μl of DNA-tagged kinase extract, 3.8 μl liganded affinity beads, and 0.18 μl test compound (PBS/0.05% Tween 20/10 mM DTT/0.1% BSA/2 μg/ml sonicated salmon sperm DNA)]. […] Kds were determined using an 11-point 3-fold compound dilution series with three DMSO control points. […]
# Test compounds are prepared as 111× stocks in 100% DMSO. Kds were determined using an 11-point 3-fold compound dilution series with three DMSO control points. […]
# pSTAT5 in Human PBMC = test: INFα induced pSTAT5 in human PBMC; assay type: cell-based; details: fresh human PBMC, compound 1 hour, INFα 5000 units/ml for 15 minutes, MSD Phospho STAT5 kit; read-out: p-STAT5 IC50
# Method: Fresh Human PBMCs were resuspended in RPMI 1640 medium with 10% FBS. Cells were seeded in a round bottom 96-well plate at the concentration of 200,000 cells/well. A 10-point dilution series of test compound (top dose 10 uM, 1:5 dilution) was added to the well using the liquid dispenser (Tecan D300e) and incubated for 1 hour at 37 C. Then human INFα recombinant protein (R&D Systems) was added to the well at the final concentration of 5000 units/ml and incubated for 15 minutes at 37 C. Cell lysates were prepared and analyzed by Phospho STAT5 (Tyr693) Kit (Meso Scale Discovery) following manufacturer's protocol.
# For calculation of the inhibition rate, the relative pSTAT5 signal of each well=pSTAT5 signal of each well−the average pSTAT5 signal of baseline.
# The inhibition %=(the average pSTAT5 signal of INFα treatment wells−the relative of pSTAT5 signal in each compound containing well)/the average pSTAT5 signal of INFα treatment wells*100%
# The curve was plotted as the inhibition % (y-axis) vs. compounds concentration (x-axis) and was fitted with log(inhibitor) vs. normalized response—Variable slope by GraphPad Prism7.0.
# T1 sequence (P29597 556-888): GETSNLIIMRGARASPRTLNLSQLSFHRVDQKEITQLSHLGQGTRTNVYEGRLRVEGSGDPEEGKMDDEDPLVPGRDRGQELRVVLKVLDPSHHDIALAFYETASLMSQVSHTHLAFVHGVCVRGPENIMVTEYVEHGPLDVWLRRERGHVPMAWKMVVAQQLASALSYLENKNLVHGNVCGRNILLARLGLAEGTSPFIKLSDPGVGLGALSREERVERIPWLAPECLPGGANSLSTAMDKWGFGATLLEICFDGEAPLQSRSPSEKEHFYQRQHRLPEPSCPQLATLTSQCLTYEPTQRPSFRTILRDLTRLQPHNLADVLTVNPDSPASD
compound,measurement,setting,value
[2H]C([2H])([2H])n1nnc2c3cc(cc21)CO[C@@H]1CCC[C@H]1NC(=O)c1cnc2c(NC)cc(nn12)N3 [Example 1],Kd,[1],2.2 pM
same,IC50,pSTAT5 in Human PBMC,1700 pM
